Experimental data: ChEMBL document CHEMBL1201862, “PubChem BioAssay data set” (2004)
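Exposure lasted 48 hours, with cells grown in 96-well plates and compounds tested at five concentrations. GI50: concentration for 50% inhibition of growth.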 Calls of active or inactive are those of the source. No stated cut-off is given here; in the data, active = GI50 up to about 1.1 µM and inactive = higher.

How the values were obtained:
Test in all cases: NCI-60 cell line screen, 48 h
[1] = test system: HCT-116
[2] = test system: UACC-257
[3] = test system: RPMI-8226
[4] = test system: SK-MEL-5
[5] = test system: MDA-MB-435
[6] = test system: NCI-H460
[7] = test system: MDA-MB-231
[8] = test system: HCT-15
[9] = test system: SN12C
[10] = test system: SF-268
[11] = test system: PC-3
[12] = test system: SNB-19
[13] = test system: A549
[14] = test system: OVCAR-4
[15] = test system: TK-10
[16] = test system: T47D
[17] = test system: DU-145
[18] = test system: OVCAR-8
[19] = test system: UO-31

Row | SMILES | GI50 [1] | GI50 [2] | GI50 [3] | GI50 [4] | GI50 [5] | GI50 [6] | GI50 [7] | GI50 [8] [µM] | GI50 [9] | GI50 [10] | GI50 [11] | GI50 [12] | GI50 [13] | GI50 [14] | GI50 [15] | GI50 [16] | GI50 [17] | GI50 [18] | GI50 [19]
1 | C=CC(O)(CBr)CCC(Br)C(=C)C (configuration not stated) | > 10 µM (inactive) | > 10 µM (inactive) | > 10 µM (inactive) | > 10 µM (inactive) | > 10 µM (inactive) | > 10 µM (inactive) | > 10 µM (inactive) | > 10 | > 10 µM (inactive) | > 10 µM (inactive) | > 10 µM (inactive) | > 10 µM (inactive) | > 10 µM (inactive) | > 10 µM (inactive) | > 10 µM (inactive) | > 10 µM (inactive) | > 10 µM (inactive) | > 10 µM (inactive) | –
2 | O=[N+]([O-])c1ccc(NC(=S)N/N=C(\c2ccccc2)c2ccccn2)cc1 | 1.49 µM (inactive) | 1.6 µM (inactive) | 4.74 µM (inactive) | 1.36 µM (inactive) | 1.74 µM (inactive) | 4.85 µM (inactive) | < 0.01 µM (active) | 0.119 | 1.48 µM (inactive) | 0.0491 µM (active) | 0.229 µM (active) | 1.58 µM (inactive) | 1.82 µM (inactive) | 1.73 µM (inactive) | 1.24 µM (inactive) | 1.45 µM (inactive) | 1.66 µM (inactive) | 0.037 µM (active) | 1.46 µM (inactive)
3 | N#CC(c1ccccc1)N(CCOCCOCCN(C(=O)c1ccccc1)C(C#N)c1ccccc1)C(=O)c1ccccc1 (configuration not stated) | 46.6 µM (inactive) | 47.1 µM (inactive) | – | 34.9 µM (inactive) | 83 µM (inactive) | 81.3 µM (inactive) | > 100 µM (inactive) | > 100 | 93.3 µM (inactive) | > 100 µM (inactive) | 37.5 µM (inactive) | > 100 µM (inactive) | 98.9 µM (inactive) | 81.7 µM (inactive) | 78.2 µM (inactive) | 7.08 µM (inactive) | > 100 µM (inactive) | > 100 µM (inactive) | 37.1 µM (inactive)
4 | O=C1Sc2ccccc2NC1=C(C(=O)c1ccccc1)C(=O)c1ccccc1 | 18.7 µM (inactive) | 17.5 µM (inactive) | 12.6 µM (inactive) | 16.8 µM (inactive) | 40.6 µM (inactive) | 9.95 µM (inactive) | 65.6 µM (inactive) | 19.5 | 18.2 µM (inactive) | 14.9 µM (inactive) | 20.6 µM (inactive) | 33 µM (inactive) | 27.5 µM (inactive) | 69.8 µM (inactive) | 26.1 µM (inactive) | 26.5 µM (inactive) | 21.2 µM (inactive) | 22.9 µM (inactive) | 29.9 µM (inactive)
5 | O=c1c2c3c(sc2nc2n1NC=NN2)CCCC3 | 17.9 µM (inactive) | 19.9 µM (inactive) | 20.5 µM (inactive) | 16.4 µM (inactive) | 12.8 µM (inactive) | 20.2 µM (inactive) | 13.4 µM (inactive) | 17.4 | 17.9 µM (inactive) | 17.5 µM (inactive) | 24.2 µM (inactive) | 42.7 µM (inactive) | > 83.4 µM (inactive) | 17.6 µM (inactive) | 24 µM (inactive) | 31.8 µM (inactive) | 36.6 µM (inactive) | 24.7 µM (inactive) | > 44.7 µM (inactive)
6 | C=C(COCO)C(C)=O | 13.5 µM (inactive) | 15.3 µM (inactive) | 2.94 µM (inactive) | 17.5 µM (inactive) | 14.2 µM (inactive) | 22 µM (inactive) | 18.8 µM (inactive) | 21.4 | 18.4 µM (inactive) | 20 µM (inactive) | 19.1 µM (inactive) | > 66.8 µM (inactive) | 26 µM (inactive) | 17.9 µM (inactive) | 13.7 µM (inactive) | 15.7 µM (inactive) | 26 µM (inactive) | 8.51 µM (inactive) | 12.2 µM (inactive)
